Data taken from US20210382058A1, “PATIENT SELECTION FOR TREATMENT OF MYC POSITIVE CANCERS WITH INDENOISOQUINOLINES” (Purdue Research Foundation, priority 2020, published 2021).
Where two headings read alike, the source gives them in different places.

Legend:
[1] = system: MYC protein expression in MCF-7 breast cancer cells; test: Western blotting of MYC protein level in MCF-7 cells; format: cell-based, human; settings: Homo sapiens, MCF7; western blotting, MCF-7 cells, 0.5, 1, 2, and 4 μM, 24 hours; read-out: MYC Inhibition
Method in brief: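 MCF-7 cells were exposed to compounds at 0.5, 1, 2 and 4 μM for 24 hours at 37° C. MYC was detected by immunoblot with ECL, using rabbit anti-MYC (1:1000) and anti-GAPDH (1:2000) as loading control.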

human topoisomerase I = target: T1, human topoisomerase I (Homo sapiens, UniProt P11387); settings: relative topoisomerase I inhibition levels, previously determined, six levels (0 - 5, +++++ = 5); cited from earlier work
T1 sequence (P11387 1-765): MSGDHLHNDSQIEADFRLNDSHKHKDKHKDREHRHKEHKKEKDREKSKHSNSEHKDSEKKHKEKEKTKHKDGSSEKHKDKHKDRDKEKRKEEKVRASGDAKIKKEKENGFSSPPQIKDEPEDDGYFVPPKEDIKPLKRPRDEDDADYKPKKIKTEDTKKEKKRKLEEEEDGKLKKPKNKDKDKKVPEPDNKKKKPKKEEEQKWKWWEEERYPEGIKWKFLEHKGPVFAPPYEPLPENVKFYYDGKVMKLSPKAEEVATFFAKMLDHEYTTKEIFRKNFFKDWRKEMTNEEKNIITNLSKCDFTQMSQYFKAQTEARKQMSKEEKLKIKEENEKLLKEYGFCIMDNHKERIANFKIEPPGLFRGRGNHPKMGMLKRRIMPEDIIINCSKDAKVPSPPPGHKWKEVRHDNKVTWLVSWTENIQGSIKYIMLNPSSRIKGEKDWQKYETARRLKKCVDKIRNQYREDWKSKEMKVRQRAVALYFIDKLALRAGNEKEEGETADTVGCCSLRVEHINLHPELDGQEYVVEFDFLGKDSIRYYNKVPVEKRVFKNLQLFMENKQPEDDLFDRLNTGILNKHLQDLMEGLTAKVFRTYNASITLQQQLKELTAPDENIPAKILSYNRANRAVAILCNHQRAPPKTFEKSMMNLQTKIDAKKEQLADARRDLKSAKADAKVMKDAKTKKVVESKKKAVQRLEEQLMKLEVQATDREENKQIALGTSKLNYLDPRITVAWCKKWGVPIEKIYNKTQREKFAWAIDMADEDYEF

NCI-60 cancer cell lines = test: NCI-60 cancer cell line drug screen (GI50, MGM); format: cell-based, human; settings: Homo sapiens; for GI50: read-out: Antiproliferative Activities [GI50 (μM)]
Experimental: Cancer cells were incubated with the test compounds at five concentrations ranging from 100 μM to 10 nM for 48 h. […] The approximate average of GI50 values across the entire panel of NCI-60 cancer cell lines for each compound was recorded as the MGM value.

For `CN(C)CCCn1c2c(c3cccnc3c1=O)C(=O)c1ccccc1-2` [Compound 20], the minimal effective concentration [1] is listed as 4 µM, the “Top1 Inhibiton” value (human topoisomerase I) is listed as “+++ (strong inhibition, +++, MYC expression inhibited at 0.5 to 1.0 μM)” and the GI50 (NCI-60 cancer cell lines; 786-0, Renal Cancer, 786-0) is listed as 1.16 µM. For the same compound, the GI50 (NCI-60 cancer cell lines; A549, Non-Small Cell Lung Cancer, A549/ATCC) was 0.59 µM, the GI50 (NCI-60 cancer cell lines; ACHN, Renal Cancer, ACHN) was 0.29 µM and the GI50 (NCI-60 cancer cell lines; BT-549, Breast Cancer, BT-549) was 1.67 µM. For the same compound, the GI50 (NCI-60 cancer cell lines; CAKI-1, Renal Cancer, CAKI-1) was 0.57 µM, the GI50 (NCI-60 cancer cell lines; CCRF-CEM, Leukemia, CCRF-CEM) was 1.37 µM and the GI50 (NCI-60 cancer cell lines; COLO 205, Colon Cancer, COLO 205) was 0.47 µM. For the same compound, the GI50 (NCI-60 cancer cell lines; DU-145, Prostate Cancer, DU-145) was 1.89 µM, the GI50 (NCI-60 cancer cell lines; HCC 2998, Colon Cancer, HCC-2998) was 2.17 µM and the GI50 (NCI-60 cancer cell lines; HCT-15, Colon Cancer, HCT-15) was 1.03 µM. It also gave a GI50 (NCI-60 cancer cell lines; HCT-116, Colon Cancer, HCT-116) of 0.44 µM, a GI50 (NCI-60 cancer cell lines; HL-60, Leukemia, HL-60(TB)) of 1.8 µM and a GI50 (NCI-60 cancer cell lines; HOP-62, Non-Small Cell Lung Cancer, HOP-62) of 1.25 µM. It also gave a GI50 (NCI-60 cancer cell lines; HOP-92, Non-Small Cell Lung Cancer, HOP-92) of 1.42 µM, a GI50 (NCI-60 cancer cell lines; HT-29, Colon Cancer, HT29) of 1.01 µM and a GI50 (NCI-60 cancer cell lines; Hs-578T, Breast Cancer, HS 578T) of 3.08 µM. It also gave a GI50 (NCI-60 cancer cell lines; IGROV-1, Ovarian Cancer, IGROV1) of 1.91 µM, a GI50 (NCI-60 cancer cell lines; K562, Leukemia, K-562) of 1.42 µM and a GI50 (NCI-60 cancer cell lines; KM12, Colon Cancer, KM12) of 1.61 µM. It also gave a GI50 (NCI-60 cancer cell lines; LOX IMVI, Melanoma, LOX IMVI) of 0.81 µM, a GI50 (NCI-60 cancer cell lines; Leukemia, SR) of 0.31 µM and a GI50 (NCI-60 cancer cell lines; MCF7, Breast Cancer, MCF7) of 0.37 µM. For the same compound, the GI50 (NCI-60 cancer cell lines; MDA-MB-231, Breast Cancer, MDA-MB-231/ATCC) was 2.58 µM, the GI50 (NCI-60 cancer cell lines; MDA-MB-435, Melanoma, MDA-MB-435) was 1.93 µM and the GI50 (NCI-60 cancer cell lines; MDA-MB-468, Breast Cancer, MDA-MB-468) was 1.57 µM. For the same compound, the GI50 (NCI-60 cancer cell lines; MOLT-4, Leukemia, MOLT-4) was 0.29 µM, the GI50 (NCI-60 cancer cell lines; Melanoma, M14) was 1.57 µM and the GI50 (NCI-60 cancer cell lines; NCI-H23, Non-Small Cell Lung Cancer, NCI-H23) was 1.86 µM. It also gave a GI50 (NCI-60 cancer cell lines; NCI-H226, Non-Small Cell Lung Cancer, NCI-H226) of 1.32 µM, a GI50 (NCI-60 cancer cell lines; NCI-H322M, Non-Small Cell Lung Cancer, NCI-H322M) of 2.47 µM and a GI50 (NCI-60 cancer cell lines; NCI-H460, Non-Small Cell Lung Cancer, NCI-H460) of 0.41 µM. It also gave a GI50 (NCI-60 cancer cell lines; NCI-H522, Non-Small Cell Lung Cancer, NCI-H522) of 1.84 µM, a GI50 (NCI-60 cancer cell lines; OVCAR-3, Ovarian Cancer, OVCAR-3) of 2.41 µM and a GI50 (NCI-60 cancer cell lines; OVCAR-4, Ovarian Cancer, OVCAR-4) of 1.93 µM. It also gave a GI50 (NCI-60 cancer cell lines; OVCAR-5, Ovarian Cancer, OVCAR-5) of 2.44 µM, a GI50 (NCI-60 cancer cell lines; OVCAR-8, Ovarian Cancer, OVCAR-8) of 0.95 µM and a GI50 (NCI-60 cancer cell lines; Ovarian Cancer, NCl/ADR-RES) of 2.72 µM. The GI50 (NCI-60 cancer cell lines; Prostate Cancer, PC-3) was 2.05 µM, the GI50 (NCI-60 cancer cell lines; RPMI-8226, Leukemia, RPMI-8226) was 1.84 µM and the GI50 (NCI-60 cancer cell lines; RXF 393, Renal Cancer, RXF 393) was 2.31 µM. It also gave a GI50 (NCI-60 cancer cell lines; Renal Cancer, U0-31) of 0.57 µM, a GI50 (NCI-60 cancer cell lines; SF-268, CNS Cancer, SF-268) of 2.15 µM and a GI50 (NCI-60 cancer cell lines; SF-295, CNS Cancer, SF-295) of 0.75 µM. For the same compound, the GI50 (NCI-60 cancer cell lines; SF-539, CNS Cancer, SF-539) was 0.85 µM, the GI50 (NCI-60 cancer cell lines; SK-MEL-2, Melanoma, SK-MEL-2) was 3.92 µM and the GI50 (NCI-60 cancer cell lines; SK-MEL-5, Melanoma, SK-MEL-5) was 1 µM. For the same compound, the GI50 (NCI-60 cancer cell lines; SK-MEL-28, Melanoma, SK-MEL-28) was 1.56 µM, the GI50 (NCI-60 cancer cell lines; SK-OV-3, Ovarian Cancer, SK-OV-3) was 2.22 µM and the GI50 (NCI-60 cancer cell lines; SN12C, Renal Cancer, SN12C) was 1.12 µM. For the same compound, the GI50 (NCI-60 cancer cell lines; SNB-19, CNS Cancer, SNB-19) was 1.75 µM, the GI50 (NCI-60 cancer cell lines; SNB-75, CNS Cancer, SNB-75) was 0.66 µM and the GI50 (NCI-60 cancer cell lines; SW-620, Colon Cancer, SW-620) was 0.46 µM. It also gave a GI50 (NCI-60 cancer cell lines; T47D, Breast Cancer, T-47D) of 2.04 µM, a GI50 (NCI-60 cancer cell lines; TK-10, Renal Cancer, TK-10) of 3.02 µM and a GI50 (NCI-60 cancer cell lines; U-251, CNS Cancer, U251) of 1.05 µM. It also gave a GI50 (NCI-60 cancer cell lines; UACC-62, Melanoma, UACC-62) of 1.3 µM, a GI50 (NCI-60 cancer cell lines; UACC-257, Melanoma, UACC-257) of 2.02 µM and a mean GI50 across NCI-60 panel (MGM) (NCI-60 cancer cell lines; average of GI50 values across the entire panel of NCI-60 cancer cell lines) of 1260 nM.
